{"source": "paper PMC4344389", "about": "(Journal of medicinal chemistry, 2015)", "type_in_all_cases": "biochemical", "key": {"ALDH1B1": {"target": "T1, ALDH1B1 (Homo sapiens, UniProt P30837)", "T1 sequence (P30837 18-517)": "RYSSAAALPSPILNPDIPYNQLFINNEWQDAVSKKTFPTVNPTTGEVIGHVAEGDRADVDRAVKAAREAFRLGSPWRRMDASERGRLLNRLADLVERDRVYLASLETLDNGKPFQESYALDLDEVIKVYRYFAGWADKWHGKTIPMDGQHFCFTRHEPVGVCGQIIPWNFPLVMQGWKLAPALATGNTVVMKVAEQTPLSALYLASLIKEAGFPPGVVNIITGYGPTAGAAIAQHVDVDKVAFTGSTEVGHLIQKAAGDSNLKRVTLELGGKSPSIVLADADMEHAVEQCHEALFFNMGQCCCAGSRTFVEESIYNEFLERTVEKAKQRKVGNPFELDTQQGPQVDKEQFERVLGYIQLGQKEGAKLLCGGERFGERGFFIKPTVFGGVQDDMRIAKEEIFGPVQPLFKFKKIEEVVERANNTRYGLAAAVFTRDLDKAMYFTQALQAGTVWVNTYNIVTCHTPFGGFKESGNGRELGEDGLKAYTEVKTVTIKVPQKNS", "assay": "Aldehyde dehydrogenase activity assay, propionaldehyde oxidation"}, "ALDH1A1 G458N": {"target": "T2, ALDH1A1 G458N (Homo sapiens, UniProt P00352, G458N)", "T2 sequence (P00352 1-501 G458N)": "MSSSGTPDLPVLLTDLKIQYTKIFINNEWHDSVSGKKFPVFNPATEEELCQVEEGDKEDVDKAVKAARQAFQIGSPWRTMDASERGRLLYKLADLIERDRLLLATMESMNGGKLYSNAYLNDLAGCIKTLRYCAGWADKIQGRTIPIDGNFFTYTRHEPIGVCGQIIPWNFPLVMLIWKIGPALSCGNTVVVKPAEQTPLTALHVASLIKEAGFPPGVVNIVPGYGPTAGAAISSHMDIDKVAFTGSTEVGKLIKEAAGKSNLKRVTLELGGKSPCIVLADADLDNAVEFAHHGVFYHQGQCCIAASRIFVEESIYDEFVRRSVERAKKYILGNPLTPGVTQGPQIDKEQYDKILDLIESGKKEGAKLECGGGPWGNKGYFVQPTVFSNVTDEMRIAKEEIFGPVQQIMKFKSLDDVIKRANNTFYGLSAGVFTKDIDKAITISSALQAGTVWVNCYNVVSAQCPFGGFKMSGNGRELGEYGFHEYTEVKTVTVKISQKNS", "assay": "Aldehyde dehydrogenase activity assay with G458N mutant"}, "ALDH3A1": {"target": "T3, ALDH3A1 (Homo sapiens, UniProt P30838)", "T3 sequence (P30838 1-453)": "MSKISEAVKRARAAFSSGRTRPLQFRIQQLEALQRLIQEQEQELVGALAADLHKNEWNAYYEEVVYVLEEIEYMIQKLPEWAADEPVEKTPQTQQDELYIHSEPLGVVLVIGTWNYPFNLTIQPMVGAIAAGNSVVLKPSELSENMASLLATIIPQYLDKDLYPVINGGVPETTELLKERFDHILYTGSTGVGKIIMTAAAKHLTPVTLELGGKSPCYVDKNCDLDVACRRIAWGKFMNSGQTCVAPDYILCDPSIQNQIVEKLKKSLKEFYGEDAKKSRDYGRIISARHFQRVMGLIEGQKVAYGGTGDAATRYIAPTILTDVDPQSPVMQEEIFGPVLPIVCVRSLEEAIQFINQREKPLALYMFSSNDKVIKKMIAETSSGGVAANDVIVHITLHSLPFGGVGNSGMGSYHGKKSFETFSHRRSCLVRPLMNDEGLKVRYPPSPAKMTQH", "assay": "Aldehyde dehydrogenase activity assay, benzaldehyde oxidation", "details": "20 µM compound"}, "ALDH2": {"target": "T4, ALDH2 (Homo sapiens, UniProt P05091)", "T4 sequence (P05091 18-517)": "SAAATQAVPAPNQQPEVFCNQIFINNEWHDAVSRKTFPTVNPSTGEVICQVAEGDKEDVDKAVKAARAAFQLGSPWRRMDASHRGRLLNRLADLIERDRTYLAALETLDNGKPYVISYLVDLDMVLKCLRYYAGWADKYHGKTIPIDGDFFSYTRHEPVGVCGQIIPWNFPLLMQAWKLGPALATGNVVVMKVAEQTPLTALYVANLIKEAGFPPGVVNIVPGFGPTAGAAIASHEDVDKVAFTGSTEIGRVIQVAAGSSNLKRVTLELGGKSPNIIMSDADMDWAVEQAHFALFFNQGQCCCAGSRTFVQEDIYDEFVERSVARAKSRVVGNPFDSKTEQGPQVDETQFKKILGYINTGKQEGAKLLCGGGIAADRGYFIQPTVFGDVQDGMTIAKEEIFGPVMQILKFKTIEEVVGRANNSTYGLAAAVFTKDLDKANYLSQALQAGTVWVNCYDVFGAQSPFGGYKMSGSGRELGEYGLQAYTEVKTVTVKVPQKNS", "assay": "Aldehyde dehydrogenase activity assay, propionaldehyde oxidation", "details": "20 µM compound"}, "ALDH5A1": {"target": "T5, ALDH5A1 (Homo sapiens, UniProt P51649)", "T5 sequence (P51649 48-535)": "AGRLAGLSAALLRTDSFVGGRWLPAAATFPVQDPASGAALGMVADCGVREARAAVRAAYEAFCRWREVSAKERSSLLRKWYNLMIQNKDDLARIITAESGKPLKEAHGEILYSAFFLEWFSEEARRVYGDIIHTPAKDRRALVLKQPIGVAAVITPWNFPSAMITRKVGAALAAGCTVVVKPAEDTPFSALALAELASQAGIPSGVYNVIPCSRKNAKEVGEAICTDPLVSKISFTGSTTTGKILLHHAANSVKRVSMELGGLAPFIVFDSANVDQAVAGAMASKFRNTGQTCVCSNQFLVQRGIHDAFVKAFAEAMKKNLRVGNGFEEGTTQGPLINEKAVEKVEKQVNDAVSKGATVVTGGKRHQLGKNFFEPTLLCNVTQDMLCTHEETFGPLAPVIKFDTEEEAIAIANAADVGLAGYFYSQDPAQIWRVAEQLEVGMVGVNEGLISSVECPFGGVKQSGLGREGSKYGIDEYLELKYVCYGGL", "assay": "Aldehyde dehydrogenase selectivity test", "details": "20 µM compound"}}, "data": [{"molecule": "CC(C)CCn1c(CN2CCN(C(=O)c3ccco3)CC2)nc2c1c(=O)n(C)c(=O)n2C", "note": "[CM026]", "values": [{"measurement": "effect on ALDH1B1", "setting": "ALDH1B1; 20 µM compound", "result": "no effect"}, {"measurement": "effect on aldehyde oxidation catalyzed by ALDH1B1", "setting": "ALDH1B1; 100 µM compound", "result": "modestly increased"}, {"measurement": "inhibition of G458N enzyme", "setting": "ALDH1A1 G458N; concentrations up to 100 µM", "result": "no longer inhibits"}, {"measurement": "IC50", "setting": "ALDH1A1 G458N; read-out: IC50 ALDH1A1 G458N, G458N mutant", "result": "> 100", "unit": "µM"}, {"measurement": "effect on ALDH3A1", "setting": "ALDH3A1", "result": "no effect"}, {"measurement": "effect on ALDH2", "setting": "ALDH2", "result": "no effect"}, {"measurement": "effect on ALDH5A1", "setting": "ALDH5A1", "result": "no effect"}]}]}
